In the NIST ThermoML archive (doi:10.1016/j.jct.2014.12.020):
Numbers after ± are expanded uncertainties.

Assay: wn = mass fraction of the nth substance listed
Settings: 100 kPa, Liquid; for viscosity: Concentric cylinders viscometry; for mass density: Vibrating tube method

CCC(=O)[O-].C[N+](C)(C)CCO [cholinium propanoate] + O
Settings	mass density [kg/m3]	viscosity [mPa·s]
293.15 K, w2 = 0.003	1070.1 ± 1.3	4600 ± 280
293.15 K, w2 = 0.01	1070.9 ± 1.3	3316.4 ± 190
293.15 K, w2 = 0.021	1072.1 ± 1.3	2130.4 ± 110
293.15 K, w2 = 0.025	1072.3 ± 1.3	1826.4 ± 91
293.15 K, w2 = 0.046	1074 ± 1.3	980.3 ± 42
293.15 K, w2 = 0.064	1075.3 ± 1.3	607 ± 23
293.15 K, w2 = 0.1	1076.9 ± 1.3	286 ± 8.9
293.15 K, w2 = 0.127	1077.5 ± 1.2	193.3 ± 5.4
293.15 K, w2 = 0.208	1077.7 ± 1.2	74.5 ± 1.7
293.15 K, w2 = 0.262	1075.4 ± 1.1	49.6 ± 1.1
298.15 K, w2 = 0.003	1067.4 ± 1.3	2918.6 ± 160
298.15 K, w2 = 0.01	1068.1 ± 1.3	2112.2 ± 110
298.15 K, w2 = 0.021	1069.2 ± 1.3	1416.6 ± 66
298.15 K, w2 = 0.025	1069.5 ± 1.3	1227.2 ± 56
298.15 K, w2 = 0.046	1071.1 ± 1.3	681.1 ± 27
298.15 K, w2 = 0.064	1072.3 ± 1.3	432.9 ± 15
298.15 K, w2 = 0.1	1074 ± 1.3	211.8 ± 6
298.15 K, w2 = 0.127	1074.6 ± 1.2	145.4 ± 3.7
298.15 K, w2 = 0.208	1074.9 ± 1.2	57.9 ± 1.3
298.15 K, w2 = 0.262	1072.3 ± 1.1	39.1 ± 0.9
303.15 K, w2 = 0.003	1064.6 ± 1.3	1909.6 ± 96
303.15 K, w2 = 0.01	1065.3 ± 1.3	1410 ± 66
303.15 K, w2 = 0.021	1066.4 ± 1.3	968.2 ± 42
303.15 K, w2 = 0.025	1066.7 ± 1.3	847.5 ± 35
303.15 K, w2 = 0.046	1068.2 ± 1.3	484.8 ± 17
303.15 K, w2 = 0.064	1069.5 ± 1.3	315.7 ± 10
303.15 K, w2 = 0.1	1071.2 ± 1.3	159.9 ± 4.2
303.15 K, w2 = 0.127	1071.9 ± 1.2	111.4 ± 2.7
303.15 K, w2 = 0.208	1072 ± 1.2	45.8 ± 1
303.15 K, w2 = 0.262	1069.4 ± 1.1	31.4 ± 0.7
308.15 K, w2 = 0.003	1061.9 ± 1.3	1285 ± 59
308.15 K, w2 = 0.01	1062.5 ± 1.3	967 ± 41
308.15 K, w2 = 0.021	1063.6 ± 1.3	678.9 ± 27
308.15 K, w2 = 0.025	1063.8 ± 1.3	599.9 ± 23
308.15 K, w2 = 0.046	1065.4 ± 1.3	353 ± 12
308.15 K, w2 = 0.064	1066.7 ± 1.3	235.1 ± 6.9
308.15 K, w2 = 0.1	1068.4 ± 1.2	123 ± 3.1
308.15 K, w2 = 0.127	1069.1 ± 1.2	86.8 ± 2
308.15 K, w2 = 0.208	1069.2 ± 1.2	36.7 ± 0.8
308.15 K, w2 = 0.262	1066.5 ± 1.1	25.5 ± 0.6
313.15 K, w2 = 0.003	1059.2 ± 1.3	888.1 ± 37
313.15 K, w2 = 0.01	1059.8 ± 1.3	680.2 ± 27
313.15 K, w2 = 0.021	1060.8 ± 1.3	487.3 ± 18
313.15 K, w2 = 0.025	1061 ± 1.3	434.3 ± 15
313.15 K, w2 = 0.046	1062.6 ± 1.3	262.3 ± 7.9
313.15 K, w2 = 0.064	1063.9 ± 1.3	178.4 ± 4.9
313.15 K, w2 = 0.1	1065.7 ± 1.2	96.1 ± 2.3
313.15 K, w2 = 0.127	1066.4 ± 1.2	68.7 ± 1.5
313.15 K, w2 = 0.208	1066.3 ± 1.2	29.8 ± 0.7
313.15 K, w2 = 0.262	1063.6 ± 1.1	20.8 ± 0.5
318.15 K, w2 = 0.003	1056.4 ± 1.3	628.8 ± 24
318.15 K, w2 = 0.01	1057 ± 1.3	489.6 ± 18
318.15 K, w2 = 0.021	1058.1 ± 1.3	357.4 ± 12
318.15 K, w2 = 0.025	1058.3 ± 1.3	321.1 ± 10
318.15 K, w2 = 0.046	1059.9 ± 1.3	198.7 ± 5.6
318.15 K, w2 = 0.064	1061.2 ± 1.3	137.7 ± 3.5
318.15 K, w2 = 0.1	1062.9 ± 1.2	76.2 ± 1.7
318.15 K, w2 = 0.127	1063.6 ± 1.2	55.1 ± 1.2
318.15 K, w2 = 0.208	1063.4 ± 1.2	24.5 ± 0.5
318.15 K, w2 = 0.262	1060.7 ± 1.1	17.5 ± 0.4
323.15 K, w2 = 0.003	1053.6 ± 1.3	455.4 ± 16
323.15 K, w2 = 0.01	1054.3 ± 1.3	360 ± 12
323.15 K, w2 = 0.021	1055.4 ± 1.3	267.4 ± 8.2
323.15 K, w2 = 0.025	1055.7 ± 1.3	241.9 ± 7.2
323.15 K, w2 = 0.046	1057.3 ± 1.3	153.1 ± 4
323.15 K, w2 = 0.064	1058.7 ± 1.3	108 ± 2.6
323.15 K, w2 = 0.1	1060.2 ± 1.2	61.3 ± 1.4
323.15 K, w2 = 0.127	1060.8 ± 1.2	44.8 ± 1
323.15 K, w2 = 0.208	1060.6 ± 1.2	20.4 ± 0.5
323.15 K, w2 = 0.262	1057.8 ± 1.1	14.7 ± 0.3
328.15 K, w2 = 0.003	1050.9 ± 1.3	336.7 ± 11
328.15 K, w2 = 0.01	1051.6 ± 1.3	270 ± 8.3
328.15 K, w2 = 0.021	1052.7 ± 1.3	203.8 ± 5.8
328.15 K, w2 = 0.025	1053 ± 1.3	185.5 ± 5.1
328.15 K, w2 = 0.046	1054.6 ± 1.3	119.9 ± 3
328.15 K, w2 = 0.064	1056 ± 1.3	86 ± 2
328.15 K, w2 = 0.1	1057.5 ± 1.2	50 ± 1.1
328.15 K, w2 = 0.127	1058 ± 1.2	36.9 ± 0.8
328.15 K, w2 = 0.208	1057.8 ± 1.2	17.2 ± 0.4
328.15 K, w2 = 0.262	1054.9 ± 1.1	12.5 ± 0.3
333.15 K, w2 = 0.003	1048.2 ± 1.3	253.8 ± 7.6
333.15 K, w2 = 0.01	1049 ± 1.3	206.2 ± 5.9
333.15 K, w2 = 0.021	1050.1 ± 1.3	158.1 ± 4.2
333.15 K, w2 = 0.025	1050.3 ± 1.3	144.6 ± 3.8
333.15 K, w2 = 0.046	1052.1 ± 1.3	95.3 ± 2.3
333.15 K, w2 = 0.064	1053.3 ± 1.3	69.4 ± 1.6
333.15 K, w2 = 0.1	1054.8 ± 1.2	41.2 ± 0.9
333.15 K, w2 = 0.127	1055.4 ± 1.2	30.7 ± 0.7
333.15 K, w2 = 0.208	1054.9 ± 1.2	14.6 ± 0.3
333.15 K, w2 = 0.262	1051.9 ± 1.1	10.6 ± 0.2
338.15 K, w2 = 0.003	1045.5 ± 1.3	194.8 ± 5.5
338.15 K, w2 = 0.01	1046.3 ± 1.3	160.1 ± 4.3
338.15 K, w2 = 0.021	1047.5 ± 1.3	124.5 ± 3.1
338.15 K, w2 = 0.025	1047.8 ± 1.3	114.4 ± 2.8
338.15 K, w2 = 0.046	1049.4 ± 1.3	76.7 ± 1.8
338.15 K, w2 = 0.064	1050.7 ± 1.3	56.7 ± 1.3
338.15 K, w2 = 0.1	1052.1 ± 1.2	34.3 ± 0.8
338.15 K, w2 = 0.127	1052.6 ± 1.2	25.8 ± 0.6
338.15 K, w2 = 0.208	1052 ± 1.2	12.5 ± 0.3
338.15 K, w2 = 0.262	1048.9 ± 1.1	9.3 ± 0.2
343.15 K, w2 = 0.003	1042.9 ± 1.3	151.9 ± 4
343.15 K, w2 = 0.01	1043.7 ± 1.3	126.2 ± 3.2
343.15 K, w2 = 0.021	1044.8 ± 1.3	99.3 ± 2.4
343.15 K, w2 = 0.025	1045.1 ± 1.3	91.8 ± 2.2
343.15 K, w2 = 0.046	1046.7 ± 1.3	62.5 ± 1.4
343.15 K, w2 = 0.064	1047.9 ± 1.3	46.8 ± 1
343.15 K, w2 = 0.1	1049.3 ± 1.2	28.8 ± 0.6
343.15 K, w2 = 0.127	1049.7 ± 1.2	21.9 ± 0.5
343.15 K, w2 = 0.208	1049.1 ± 1.2	10.8 ± 0.2
343.15 K, w2 = 0.262	1045.8 ± 1.1	8.1 ± 0.2
